The test system of data set [1] is mouse extensor digitorum longus (EDL) muscle. Description: Ex vivo isometric force, mouse EDL. Conditions: WT mouse EDL, 10 μM. How it is done:
Isometric force was measured ex vivo in mouse EDL and soleus muscle. EDL muscle eccentric injury was based on published protocols ([30]), with degree of lengthening and stimulation modified to yield a uniform drop in mdx isometric and peak force over 10 contractions. After isolation, muscle was mounted via 5-0 suture to a combination servomotor/force transducer (300C-LR, Aurora) between 2 electrodes connected to a stimulator (701C, Aurora) in Ringers solution at 27°C with continuously infused CO2/O2 gas mixture. Experiments were recorded with custom MATLAB software via a National Instruments PCIe-6321 board and 2090A BNC connector. Muscles were preincubated for 60 minutes with DMSO (final 0.1%)/compound before 10 eccentric contractions, 1 minute apart, with 100 milliseconds of isometric stimulation at 100 Hz and active lengthening of 0.1 L0 at a rate of 2 L0/s. After lengthening, muscles were held at 1.1 L0 with stimulation for 100 milliseconds (Supplemental Figure 2A).

For the next data set, the system named is mdx lumbrical muscle. In words: Ex vivo mdx lumbrical muscle contraction, calcium and clots. Also on record: species or system mouse. How it is done: Intracellular calcium quantification and isometric injury were described previously ([31]). Lumbrical muscles were transferred to a custom-built chamber and mounted horizontally to a force transducer (model 400A, Aurora Scientific) at 25°C. Sarcomere length was adjusted to 2.5 μm by microscope. Contraction was elicited with 0.2-millisecond stimuli and injury via 1-second stimuli at 125 Hz.
For fluorescence experiments, a 75W xenon lamp was used with wavelengths selected using a diffraction grating monochromator (model DeltaRAM, Photon Technology International). Muscles were loaded with mag-fura-2 AM (10 μM in Tyrode) for 30 minutes at 25°C, excited at 344 and 375 nm (bandwidth 10 nm), and passed through a 510 nm emission filter (bandwidth 40 nm). Fluorescence responses were recorded alternately during 32 twitch contractions at 20-second intervals; background fluorescence was subtracted, and the response was averaged. High-affinity fura-2 was used to detect membrane breaches between tetanic contractions. Muscles were incubated with fura-2 AM (15 μM in Tyrode) for 30 minutes before 12 injurious contractions, separated by 1 minute with (10/s) alternating excitation wavelengths of 340 and 375 nm (bandwidth 1.25 nm) with a 510 nm emission filter (bandwidth 40 nm) and preloading background subtraction. Still and video images were captured using a digital camera (Nikon D750).

Data set [2] can be described thus: Muscle concentration in GRMD dogs. The class given is in vivo, dog. Conditions: end of the dosing period. How it is done: We viewed data in mice as encouraging but were interested in testing EDG-5506 in dystrophic golden retriever (GRMD) dogs; their muscle composition and function more closely resemble that of humans ([40]). Older (7 months of age), disease-stable GRMD were dosed in 2-week periods with vehicle, then EDG-5506, followed by a vehicle washout. As fast fiber atrophy has been documented in DMD dogs ([16]), we confirmed sustained fast myosin from biopsies of age-matched WT/GRMD gastrocnemius muscle (Supplemental Figure 6A). EDG-5506 concentration was measured from a muscle biopsy at the end of the dosing period (4,951 ± 217 ng/g muscle). EDG-5506 administration was associated with a more than 50% decrease in CK, returning to pretreatment levels after compound washout (Figure 6A). Physical activity normally increases CK in GRMD ([41]), raising the question of whether EDG-5506 lowered CK via decreasing physical activity. We sought to test the effect of EDG-5506 on habitual activity in the same dogs using an activity monitor ([42]). EDG-5506 improved average daily activity by more than 30% (Figure 6B and Supplemental Figure 6B) with reversible increases in time active and decreases in time resting (Figure 6C). One GRMD used in the biomarker study was too severely progressed to participate in this study.

The next data set addresses T1, AKT2 (Homo sapiens, UniProt P31751).
T1 construct: purchased Eurofins DiscoverX (KINOMEscan; SAFETYscan E/IC50 ELECT)
In words: KINOMEscan scanEDGE. The class given is binding. Conditions: 20 uM.

The target in another data set is T2, AURKA (Homo sapiens, UniProt O14965).
T2 construct: purchased Eurofins DiscoverX (KINOMEscan; SAFETYscan E/IC50 ELECT)
Description: KINOMEscan scanEDGE. The following applies: 20 uM. The class given is binding.

The target in the next data set is T3, BRAF (Homo sapiens, UniProt P15056).
T3 construct: purchased Eurofins DiscoverX (KINOMEscan; SAFETYscan E/IC50 ELECT)
Description: KINOMEscan scanEDGE. It is filed as binding. Conditions: 20 uM.

The target of another data set is T4, CDK3 (Homo sapiens, UniProt Q00526).
T4 construct: purchased Eurofins DiscoverX (KINOMEscan; SAFETYscan E/IC50 ELECT)
In words: KINOMEscan scanEDGE. The class given is binding. Conditions: 20 uM.

A further data set addresses T5, ERK1 (Homo sapiens, UniProt P27361).
T5 construct: purchased Eurofins DiscoverX (KINOMEscan; SAFETYscan E/IC50 ELECT)
Description: KINOMEscan scanEDGE. The class given is binding. Conditions: 20 uM.

The target in another data set is T6, FAK (Homo sapiens, UniProt Q05397).
T6 construct: purchased Eurofins DiscoverX (KINOMEscan; SAFETYscan E/IC50 ELECT)
In words: KINOMEscan scanEDGE. The class given is binding. Conditions: 20 uM.

A further data set has as its target T7, MAPKAPK2 (Homo sapiens, UniProt P49137).
T7 construct: purchased Eurofins DiscoverX (KINOMEscan; SAFETYscan E/IC50 ELECT)
In words: KINOMEscan scanEDGE. It is filed as binding. The following applies: 20 uM.

Another data set addresses T8, MET (Homo sapiens, UniProt P08581).
T8 construct: purchased Eurofins DiscoverX (KINOMEscan; SAFETYscan E/IC50 ELECT)
In words: KINOMEscan scanEDGE. It is filed as binding. Conditions: 20 uM.

A further data set concerns the target T9, p38-beta (Homo sapiens, UniProt Q15759).
T9 construct: purchased Eurofins DiscoverX (KINOMEscan; SAFETYscan E/IC50 ELECT)
Description: KINOMEscan scanEDGE. It is filed as binding. Conditions: 20 uM.

The next data set addresses T10, PAK1 (Homo sapiens, UniProt Q13153).
T10 construct: purchased Eurofins DiscoverX (KINOMEscan; SAFETYscan E/IC50 ELECT)
In words: KINOMEscan scanEDGE. The following applies: 20 uM. The class given is binding.

For another data set, the target named is T11, RIOK2 (Homo sapiens, UniProt Q9BVS4).
T11 construct: purchased Eurofins DiscoverX (KINOMEscan; SAFETYscan E/IC50 ELECT)
In words: KINOMEscan scanEDGE. The following applies: 20 uM. The class given is binding.

The next data set deals with T12, ZAP70 (Homo sapiens, UniProt P43403).
T12 construct: purchased Eurofins DiscoverX (KINOMEscan; SAFETYscan E/IC50 ELECT)
In words: KINOMEscan scanEDGE. It is filed as binding. The following applies: 20 uM.

The target of a further data set is T13, AR (Homo sapiens, UniProt P10275).
T13 construct: purchased Eurofins DiscoverX (KINOMEscan; SAFETYscan E/IC50 ELECT)
In words: SAFETYscan NHR Nuclear Translocation. It is filed as cell-based. Also on record: dose or concentration left out as unconfirmed. How it is done:
(§1) The specificity of EDG-5506 for fast skeletal myosin over other, unrelated proteins was confirmed using two off-target binding and activity screens. […] A second off-target panel (SAFETYscan E/IC50 ELECT, Eurofins DiscoverX) tested in vitro enzyme activity against 78 proteins, including GPCR, ion channel, kinases, nuclear hormone receptors, and transporters. In all assays, the IC50 of EDG-5506 was more than 10 μM (Supplemental Data File 1).

A further data set has as its target T14, DAT (Homo sapiens, UniProt Q01959).
T14 construct: purchased Eurofins DiscoverX (KINOMEscan; SAFETYscan E/IC50 ELECT)
Description: SAFETYscan Transporter. Also on record: dose or concentration left out as unconfirmed. It is filed as cell-based. The following applies: read-out: Max Response (%) (Antagonist). The method, then: as §1

Another data set deals with T15, NET (Homo sapiens, UniProt P23975).
T15 construct: purchased Eurofins DiscoverX (KINOMEscan; SAFETYscan E/IC50 ELECT)
Description: SAFETYscan Transporter. It is filed as cell-based. Also noted: dose or concentration left out as unconfirmed. The following applies: read-out: Max Response (%) (Antagonist). The method, then: as §1

The target in another data set is T16, SERT (Homo sapiens, UniProt P31645).
T16 construct: purchased Eurofins DiscoverX (KINOMEscan; SAFETYscan E/IC50 ELECT)
Description: SAFETYscan Transporter. The class given is cell-based. Also noted: dose or concentration left out as unconfirmed. Conditions: read-out: Max Response (%) (Antagonist). How it is done:
as §1

The record followed here is PMC10178848, “Modulating fast skeletal muscle contraction protects skeletal muscle in animal models of Duchenne muscular dystrophy” (The Journal of Clinical Investigation, 2023).

Where two headings read alike, the source gives them in different places.

T13 sequence (P10275 whole entry): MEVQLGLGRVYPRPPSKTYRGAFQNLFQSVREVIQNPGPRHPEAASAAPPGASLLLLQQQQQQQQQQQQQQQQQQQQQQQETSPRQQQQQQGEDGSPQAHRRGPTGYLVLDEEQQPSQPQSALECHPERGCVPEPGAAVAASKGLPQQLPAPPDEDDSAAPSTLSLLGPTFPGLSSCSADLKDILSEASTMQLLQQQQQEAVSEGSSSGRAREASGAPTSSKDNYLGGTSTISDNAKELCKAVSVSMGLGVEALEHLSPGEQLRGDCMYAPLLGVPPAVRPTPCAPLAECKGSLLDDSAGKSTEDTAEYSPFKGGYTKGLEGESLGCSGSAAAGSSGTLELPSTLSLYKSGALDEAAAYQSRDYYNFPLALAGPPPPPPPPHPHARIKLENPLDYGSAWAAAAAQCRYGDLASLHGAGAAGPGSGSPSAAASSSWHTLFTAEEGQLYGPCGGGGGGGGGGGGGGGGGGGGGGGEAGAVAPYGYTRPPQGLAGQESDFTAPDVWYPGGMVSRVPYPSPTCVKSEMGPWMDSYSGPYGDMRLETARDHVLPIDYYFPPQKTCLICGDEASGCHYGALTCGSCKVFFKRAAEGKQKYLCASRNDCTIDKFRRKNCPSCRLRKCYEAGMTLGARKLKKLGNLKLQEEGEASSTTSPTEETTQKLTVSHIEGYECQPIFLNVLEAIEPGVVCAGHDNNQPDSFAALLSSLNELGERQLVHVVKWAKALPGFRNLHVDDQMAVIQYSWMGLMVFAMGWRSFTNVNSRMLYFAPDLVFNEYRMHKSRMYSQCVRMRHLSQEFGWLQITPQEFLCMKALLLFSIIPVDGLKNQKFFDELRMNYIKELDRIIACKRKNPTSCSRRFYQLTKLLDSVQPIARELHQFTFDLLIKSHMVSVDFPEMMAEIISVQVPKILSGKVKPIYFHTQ
T5 sequence (P27361 whole entry): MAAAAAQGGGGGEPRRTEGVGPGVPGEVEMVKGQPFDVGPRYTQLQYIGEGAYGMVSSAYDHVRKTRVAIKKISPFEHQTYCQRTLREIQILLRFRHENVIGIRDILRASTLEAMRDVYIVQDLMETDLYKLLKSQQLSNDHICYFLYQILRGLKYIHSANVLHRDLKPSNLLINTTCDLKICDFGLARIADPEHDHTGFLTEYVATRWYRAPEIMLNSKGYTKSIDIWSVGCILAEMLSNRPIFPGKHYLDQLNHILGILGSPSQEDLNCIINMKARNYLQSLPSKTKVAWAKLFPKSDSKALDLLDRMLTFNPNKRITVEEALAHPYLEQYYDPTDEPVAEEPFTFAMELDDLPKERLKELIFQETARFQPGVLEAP
T2 sequence (O14965 whole entry): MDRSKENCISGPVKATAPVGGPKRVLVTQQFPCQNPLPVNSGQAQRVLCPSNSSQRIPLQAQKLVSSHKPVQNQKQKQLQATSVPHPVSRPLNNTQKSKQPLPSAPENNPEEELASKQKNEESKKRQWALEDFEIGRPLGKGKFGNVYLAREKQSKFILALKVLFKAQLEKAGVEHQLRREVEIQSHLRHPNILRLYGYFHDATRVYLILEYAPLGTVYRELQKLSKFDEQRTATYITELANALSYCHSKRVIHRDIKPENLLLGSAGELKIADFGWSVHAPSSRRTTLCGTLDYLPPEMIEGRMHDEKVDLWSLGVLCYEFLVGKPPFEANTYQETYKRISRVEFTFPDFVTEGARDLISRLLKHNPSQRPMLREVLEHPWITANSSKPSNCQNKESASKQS
T10 sequence (Q13153 whole entry): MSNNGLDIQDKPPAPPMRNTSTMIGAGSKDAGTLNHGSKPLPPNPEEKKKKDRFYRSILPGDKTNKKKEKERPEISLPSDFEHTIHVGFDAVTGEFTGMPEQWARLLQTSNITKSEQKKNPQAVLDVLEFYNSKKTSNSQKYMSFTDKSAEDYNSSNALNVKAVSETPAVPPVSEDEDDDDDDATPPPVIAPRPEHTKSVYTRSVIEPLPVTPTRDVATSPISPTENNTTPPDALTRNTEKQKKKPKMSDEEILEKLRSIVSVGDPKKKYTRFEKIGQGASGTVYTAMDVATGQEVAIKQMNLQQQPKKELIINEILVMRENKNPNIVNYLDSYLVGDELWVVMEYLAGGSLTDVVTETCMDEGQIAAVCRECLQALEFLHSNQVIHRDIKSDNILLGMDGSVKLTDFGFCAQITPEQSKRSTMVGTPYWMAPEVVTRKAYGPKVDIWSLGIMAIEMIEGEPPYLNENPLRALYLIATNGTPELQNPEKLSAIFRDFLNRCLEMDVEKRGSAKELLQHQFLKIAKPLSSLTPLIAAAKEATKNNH
T15 sequence (P23975 whole entry): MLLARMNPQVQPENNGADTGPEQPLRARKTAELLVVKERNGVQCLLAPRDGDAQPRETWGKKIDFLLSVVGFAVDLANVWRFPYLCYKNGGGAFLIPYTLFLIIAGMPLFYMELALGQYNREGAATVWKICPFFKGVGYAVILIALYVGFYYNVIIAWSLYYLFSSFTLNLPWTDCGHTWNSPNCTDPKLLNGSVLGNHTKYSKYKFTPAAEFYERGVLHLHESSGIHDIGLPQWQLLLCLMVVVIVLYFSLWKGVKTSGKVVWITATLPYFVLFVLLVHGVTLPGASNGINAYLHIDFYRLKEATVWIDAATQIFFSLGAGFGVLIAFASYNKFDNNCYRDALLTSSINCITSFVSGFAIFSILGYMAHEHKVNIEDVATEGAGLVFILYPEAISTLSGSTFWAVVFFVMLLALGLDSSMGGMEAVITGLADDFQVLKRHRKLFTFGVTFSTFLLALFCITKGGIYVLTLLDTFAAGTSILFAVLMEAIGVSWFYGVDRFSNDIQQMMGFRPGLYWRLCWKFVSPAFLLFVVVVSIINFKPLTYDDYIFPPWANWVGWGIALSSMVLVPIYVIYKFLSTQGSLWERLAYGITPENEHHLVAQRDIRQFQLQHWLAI
T9 sequence (Q15759 whole entry): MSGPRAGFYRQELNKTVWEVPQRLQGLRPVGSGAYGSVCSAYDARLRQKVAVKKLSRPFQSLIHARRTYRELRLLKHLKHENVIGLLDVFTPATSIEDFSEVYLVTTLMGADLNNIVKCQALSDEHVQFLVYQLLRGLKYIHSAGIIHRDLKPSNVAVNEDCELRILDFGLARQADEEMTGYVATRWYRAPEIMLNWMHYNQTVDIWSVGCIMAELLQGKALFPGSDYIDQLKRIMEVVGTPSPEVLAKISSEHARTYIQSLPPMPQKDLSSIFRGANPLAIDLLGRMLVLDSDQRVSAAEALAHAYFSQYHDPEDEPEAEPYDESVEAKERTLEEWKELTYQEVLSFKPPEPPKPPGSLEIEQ
T11 sequence (Q9BVS4 whole entry): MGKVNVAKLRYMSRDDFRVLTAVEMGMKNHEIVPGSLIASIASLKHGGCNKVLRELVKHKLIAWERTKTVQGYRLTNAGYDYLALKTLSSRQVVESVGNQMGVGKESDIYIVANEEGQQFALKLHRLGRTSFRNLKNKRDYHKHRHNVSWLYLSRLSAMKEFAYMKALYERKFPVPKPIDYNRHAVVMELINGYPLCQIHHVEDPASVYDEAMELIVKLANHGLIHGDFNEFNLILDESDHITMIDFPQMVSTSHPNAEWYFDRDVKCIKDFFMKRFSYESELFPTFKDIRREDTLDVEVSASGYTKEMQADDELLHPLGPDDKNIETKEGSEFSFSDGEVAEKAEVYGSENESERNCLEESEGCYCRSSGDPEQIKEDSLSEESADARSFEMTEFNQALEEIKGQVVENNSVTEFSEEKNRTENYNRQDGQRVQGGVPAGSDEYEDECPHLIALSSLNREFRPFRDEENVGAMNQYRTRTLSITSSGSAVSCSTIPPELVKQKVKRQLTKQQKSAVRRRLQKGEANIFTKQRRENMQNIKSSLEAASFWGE
T7 sequence (P49137 whole entry): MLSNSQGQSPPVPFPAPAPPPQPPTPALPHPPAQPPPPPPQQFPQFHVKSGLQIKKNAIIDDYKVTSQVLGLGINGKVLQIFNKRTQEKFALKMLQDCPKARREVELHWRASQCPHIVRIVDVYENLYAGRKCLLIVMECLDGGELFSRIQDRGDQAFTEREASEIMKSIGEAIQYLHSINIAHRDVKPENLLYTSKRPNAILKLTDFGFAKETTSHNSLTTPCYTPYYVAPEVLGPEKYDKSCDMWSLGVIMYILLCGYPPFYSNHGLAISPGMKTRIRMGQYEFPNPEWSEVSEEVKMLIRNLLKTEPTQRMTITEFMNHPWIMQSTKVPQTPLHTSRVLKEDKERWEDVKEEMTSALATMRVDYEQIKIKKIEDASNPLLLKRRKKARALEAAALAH
T12 sequence (P43403 whole entry): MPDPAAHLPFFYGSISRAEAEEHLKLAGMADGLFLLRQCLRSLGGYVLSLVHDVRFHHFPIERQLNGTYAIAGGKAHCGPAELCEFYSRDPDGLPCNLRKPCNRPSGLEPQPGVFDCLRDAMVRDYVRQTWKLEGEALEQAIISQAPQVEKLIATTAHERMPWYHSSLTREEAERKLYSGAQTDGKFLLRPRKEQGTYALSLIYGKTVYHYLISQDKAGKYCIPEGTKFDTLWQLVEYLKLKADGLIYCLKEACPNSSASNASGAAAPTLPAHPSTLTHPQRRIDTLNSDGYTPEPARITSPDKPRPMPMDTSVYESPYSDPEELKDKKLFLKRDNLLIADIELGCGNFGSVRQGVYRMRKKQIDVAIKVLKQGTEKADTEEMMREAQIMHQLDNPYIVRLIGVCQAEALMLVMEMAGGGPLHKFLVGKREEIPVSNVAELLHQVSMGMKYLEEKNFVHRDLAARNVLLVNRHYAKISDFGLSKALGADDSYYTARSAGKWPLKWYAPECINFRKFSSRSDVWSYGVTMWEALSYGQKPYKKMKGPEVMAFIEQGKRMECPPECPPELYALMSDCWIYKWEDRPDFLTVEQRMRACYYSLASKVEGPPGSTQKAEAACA

As to `O=c1ccc(-c2cnc(OCC(F)(F)F)nc2)nn1Cc1cncc(F)c1` [EDG-5506], the “ex vivo force inhibition” value in data set [1] is reported as “completely inhibiting force”. For the same compound, the “reduction of specific tension before injury” value with mdx lumbrical muscle (0.3 μM) is recorded as 15%. For the same compound, the “strength drop with contraction” value with mdx lumbrical muscle (mdx lumbrical) is listed as “completely prevented”. For the same compound, the “clot formation (hypercontraction)” value in the data set with mdx lumbrical muscle (mdx lumbrical, after 12 contractions) is “completely prevented clot formation”. Also, the “concentration of maximal efficacy” value in the data set with mdx lumbrical muscle (mdx lumbrical, repeated tetanic contraction) is 0.3 µM. For the same compound, in [2], the “EDG-5506 concentration in muscle biopsy” value is listed as 4,951 ± 217 ng/g muscle. The “binding, % of control” value at AKT2 is given as 93 % of control; at AURKA, 99 % of control; on BRAF, 91 % of control; at CDK3, 100 % of control; on ERK1, 100 % of control; at FAK, 100 % of control. The “binding, % of control” value at MAPKAPK2 is recorded as 100 % of control; at MET it was 55 % of control; on p38-beta, 54 % of control; at PAK1, 100 % of control; at RIOK2, 80 % of control; on ZAP70, 85 % of control. For the same compound, the Emax came to 0% at AR (read-out: Max Response (%) (Agonist)); 0% on AR (read-out: Max Response (%) (Antagonist)); 0% on DAT; 4.79% at NET; 6.08% on SERT.
